In assay [1] the target is T1, Human Factor XIIa (Homo sapiens, UniProt P00748).
T1 construct: purchased Enzyme Research Laboratories
T1 sequence (P00748 373-615 limits assumed): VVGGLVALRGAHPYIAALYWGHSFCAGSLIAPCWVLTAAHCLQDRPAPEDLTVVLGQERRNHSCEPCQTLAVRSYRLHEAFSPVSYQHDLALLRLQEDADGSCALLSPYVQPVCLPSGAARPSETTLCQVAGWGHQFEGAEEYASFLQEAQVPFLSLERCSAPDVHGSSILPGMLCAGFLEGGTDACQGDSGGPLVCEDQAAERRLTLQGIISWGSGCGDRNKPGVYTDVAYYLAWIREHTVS
T1 sequence (P00748 20-372 partner limits assumed): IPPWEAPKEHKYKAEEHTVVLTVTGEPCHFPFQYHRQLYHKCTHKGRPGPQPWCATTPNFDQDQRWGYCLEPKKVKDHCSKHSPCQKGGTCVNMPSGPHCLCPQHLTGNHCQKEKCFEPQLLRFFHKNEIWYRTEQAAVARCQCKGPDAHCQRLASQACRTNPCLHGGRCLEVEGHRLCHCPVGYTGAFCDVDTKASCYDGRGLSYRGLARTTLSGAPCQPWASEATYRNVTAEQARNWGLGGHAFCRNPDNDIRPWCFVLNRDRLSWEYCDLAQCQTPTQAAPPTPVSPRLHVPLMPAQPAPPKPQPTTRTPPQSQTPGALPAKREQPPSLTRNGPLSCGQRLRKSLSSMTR
Kind of assay: Determination of Factor XIIa inhibitory activity in vitro (fluorogenic substrate H-DPro-Phe-Arg-AFC). The class given is biochemical. The note with it: Human Factor XIIa (Enzyme Research Laboratories), 25° C., read-out: Human FXIIa IC50. In a few lines: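 In vitro inhibition of human Factor XIIa (sourced from Enzyme Research Laboratories) was measured by incubating the enzyme at 25° C. with the fluorogenic substrate H-DPro-Phe-Arg-AFC across a range of test compound concentrations. The initial reaction rate, taken as residual enzyme activity, was followed by the […], and IC50 values were calculated.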

Assay [2] concerns the target T2, Human FXIa (Homo sapiens, UniProt P03951).
T2 construct: purchased Enzyme Research Laboratories
As to the kind of experiment: Determination of FXIa inhibitory activity in vitro (fluorogenic substrate Z-Gly-Pro-Arg-AFC). The class given is biochemical. The note with it: Selectivity, Human FXIa (Enzyme Research Laboratories), 25° C.

pIC50: −log10 of the molar value.

This passage reports IC50 results from patent US20220298141A1, “ENZYME INHIBITORS” (KALVISTA PHARMACEUTICALS LIMITED, priority 2019, published 2022).

The term pIC50 denotes the negative decadic logarithm of the IC50, by convention in mol/L.

T2 sequence (P03951 388-625 limits assumed): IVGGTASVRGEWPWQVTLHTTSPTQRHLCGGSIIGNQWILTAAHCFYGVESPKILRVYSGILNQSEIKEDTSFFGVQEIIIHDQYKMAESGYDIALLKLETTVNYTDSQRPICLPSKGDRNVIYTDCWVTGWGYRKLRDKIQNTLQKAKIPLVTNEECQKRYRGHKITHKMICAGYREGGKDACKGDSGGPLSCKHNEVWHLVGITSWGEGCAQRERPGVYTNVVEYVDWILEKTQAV
T2 sequence (P03951 19-387 partner limits assumed): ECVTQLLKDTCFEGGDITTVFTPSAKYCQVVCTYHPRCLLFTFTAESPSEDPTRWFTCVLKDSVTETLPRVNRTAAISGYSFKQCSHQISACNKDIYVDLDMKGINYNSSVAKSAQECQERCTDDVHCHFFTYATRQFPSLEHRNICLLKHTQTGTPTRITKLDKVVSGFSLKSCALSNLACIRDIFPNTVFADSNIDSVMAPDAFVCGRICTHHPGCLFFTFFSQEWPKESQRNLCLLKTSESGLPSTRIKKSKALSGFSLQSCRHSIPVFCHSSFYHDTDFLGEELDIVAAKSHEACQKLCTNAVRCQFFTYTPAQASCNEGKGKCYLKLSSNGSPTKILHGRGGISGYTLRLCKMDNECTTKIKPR

On to `Cc1nc2ccc(NC(=O)c3nccnc3NCC3CCN(C)CC3)cc2o1` [Example 33.10], for which the pIC50 in assay [1] was 4.40 to 5.00; in assay [2] it was 4.70.

For the compound `CN1CCC(CNc2nccnc2C(=O)Nc2ccc(-c3n[nH]c(=O)[nH]3)cc2)CC1` [Example 33.11], the negative-log IC50 (pIC50) in assay [1] was 4.40 to 5.00; in assay [2] it was less than 4.40.

Take `CN1CCC(CNc2nccnc2C(=O)Nc2cccc3c(N)nccc23)CC1` [Example 33.12, N-(1-aminoisoquinolin-5-yl)-3-(((1-methylpiperidin-4-yl)methyl)amino)pyrazine-2-carboxamide]: the pIC50 in assay [1] was 5.52 to 6.00; in assay [2] it was less than 4.40.

Regarding `CN1CCC(CNc2nccnc2C(=O)N[C@@H]2CCc3c2ccnc3N)CC1` [Example 33.13], the pIC50 in assay [1] was 5.00 to 5.52; in assay [2] it was 4.40.

Regarding `CN1CCC(CNc2nccnc2C(=O)Nc2cnc3[nH]cc(Cl)c3c2)CC1` [Example 33.14], the pIC50 in assay [1] is 4.40 to 5.00; in assay [2] it was less than 4.40.

`CN1CCC(CNc2nccnc2C(=O)Nc2cccc3[nH]cc(Cl)c23)CC1` [Example 33.15]: the pIC50 in assay [1] was 4.40 to 5.00; in assay [2], less than 4.40.

For the compound `CN1CCC(CNc2nccnc2C(=O)NCc2ccc3ccnc(N)c3c2)CC1` [Example 33.16], the pIC50 in assay [1] was 5.00 to 5.52; in assay [2], less than 4.40.

In the case of `COc1ccc(-n2cncn2)c(CNC(=O)c2nccnc2NCC2CCN(C)CC2)c1F` [Example 33.17], the values for the pIC50 in assay [1] and in assay [2] were 4.40 to 5.00 and less than 4.40, respectively.

In the case of `Cc1c(CNC(=O)c2nccnc2NCC2CCN(C)CC2)ccc2c(N)nccc12` [Example 33.18, N-((1-amino-5-methylisoquinolin-6-yl)methyl)-3-(((1-methylpiperidin-4-yl)methyl)amino)pyrazine-2-carboxamide], the figures for the pIC50 in assay [1] and in assay [2] were 6.00 to 6.52 and less than 4.40, respectively.

For the compound `CN1CCC(CNc2nccnc2C(=O)NCc2cc(F)c3c(N)nccc3c2)CC1` [Example 33.19], the values for the pIC50 in assay [1] and in assay [2] were 4.40 to 5.00 and less than 4.40, respectively.

Regarding `COc1cc2c(N)nccc2cc1CNC(=O)c1nccnc1NCC1CCN(C)CC1` [Example 33.20], the pIC50 was 5.52 to 6.00 in assay [1] and 4.87 in assay [2].

On to `CN1CCC(CNc2nccnc2C(=O)NCc2cc3c(N)nccc3s2)CC1` [Example 33.21], for which the figures for the pIC50 in assay [1] and in assay [2] were 5.00 to 5.52 and less than 4.40, respectively.
